Test results as given in patent US8591943B2, “Pyrazolo[1,5-a]pyrimidine derivatives as mTOR inhibitors” (Merck Sharp & Dohme Corp., priority 2009, dated 2013).

Legend:
mTOR enzyme = mTOR enzyme (Homo sapiens, UniProt P42345); assay: mTOR Kinase Assay; type: biochemical; details: rated A-F
Experimental: The mTOR assay buffer contains 10 mM hepes (pH 7.4), 50 mM NaCl, 100 μg/ml BSA, 50 mM B-glycerophosphate, 10 mM MnCl2 and 0.5 mM DTT. 20 ng of mTOR enzyme is preincubated with the compound for 10 minutes. 5 μM ATP and 0.1 μM GSTS6K is added. The reaction is incubated for one hour at 30° C. Anti phospho p70S6K (about 1.7 ng/well) and anti GSTXL665 (1:1 Ratio with the substrate GSTS6K) are added after incubating. The plates are read at least 2 hours after adding the anti phospho p70S6K and the anti GSTXL665.

Cyclin E/CDK2 = molecular target: T1, Cyclin E/CDK2 (Homo sapiens, UniProt P24941); assay: In Vitro Cyclin E/CDK2 Kinase Assay; type: biochemical; details: rated A-F
T1 construct: made in house; host or cells: SF9 cells, baculovirus co-infection
Text: Cyclin E was cloned into pVL1393 (Pharmingen, La Jolla, Calif.) by PCR, with the addition of 5 histidine residues at the amino-terminal end to allow purification on nickel resin. The expressed protein was approximately 45 kDa. CDK2 was cloned into pVL1393 by PCR, with the addition of a haemaglutinin epitope tag at the carboxy-terminal end (YDVPDYAS). The expressed protein was approximately 34 kDa in size.
Recombinant baculoviruses expressing cyclin E and CDK2 were co-infected into SF9 cells at an equal multiplicity of infection (MOI=5), for 48 hrs. Cells were harvested by centrifugation at 1000 RPM for 10 minutes, then pellets lysed on ice for 30 minutes in five times the pellet volume of lysis buffer containing 50 mM Tris pH 8.0, 150 mM NaCl, 1% NP40, 1 mM DTT and protease inhibitors (Roche Diagnostics GmbH, Mannheim, Germany). Lysates were spun down at 15000 RPM for 10 minutes and the supernatant retained. 5 mL of nickel beads (for one liter of SF9 cells) were washed three times in lysis buffer (Qiagen GmbH, Germany). Imidazole was added to the baculovirus supernatant to a final concentration of 20 mM, then incubated with the nickel beads for 45 minutes at 4° C. Proteins were eluted with lysis buffer containing 250 mM imidazole. Eluate was dialyzed about 15 hours in 2 liters of kinase buffer containing 50 mM Tris pH 8.0, 1 mM DTT, 10 mM MgCl2, 100 μM sodium orthovanadate and 20% glycerol. Enzyme was stored in aliquots at −70° C.
Cyclin E/CDK2 kinase assays can be performed as described below in low protein binding 96-well plates (Corning Inc, Corning, N.Y.).
The substrate used in these reactions is a biotinylated peptide derived from Histone H1 (from Amersham, UK). The substrate is thawed on ice and diluted to 2 μM in kinase buffer. Test compounds are diluted in 10% DMSO to desirable concentrations. For each kinase reaction, 20 μL of the 50 μg/mL enzyme solution (1 μg of enzyme) and 20 μl of the 2 μM substrate solution are mixed, then combined with 10 μL of diluted compound in each well for testing. The kinase reaction is initiated by addition of 50 μL of 2 μM ATP and 0.1 μCi of ^33P-ATP (from Amersham, UK). The reaction is allowed to run for 1 hour at room temperature, then is stopped by adding 200 μL of stop buffer containing 0.1% Triton X-100, 1 mM ATP, 5 mM EDTA, and 5 mg/mL streptavidine coated SPA beads (from Amersham, UK) for 15 minutes. The SPA beads are then captured onto a 96-well GFIB filter plate (Packard/Perkin Elmer Life Sciences) using a Filtermate universal harvester (Packard/Perkin Elmer Life Sciences.). Non-specific signals are eliminated by washing the beads twice with 2M NaCl then twice with 2 M NaCl with 1% phosphoric acid. The radioactive signal can then be measured using, for example, a TopCount 96 well liquid scintillation counter (from Packard/Perkin Elmer Life Sciences).

recombinant His-CHK1 = molecular target: T2, recombinant His-CHK1 (Homo sapiens, UniProt O14757); assay: CHK1 In Vitro Kinase Assay
T2 sequence (O14757 1-265 limits assumed): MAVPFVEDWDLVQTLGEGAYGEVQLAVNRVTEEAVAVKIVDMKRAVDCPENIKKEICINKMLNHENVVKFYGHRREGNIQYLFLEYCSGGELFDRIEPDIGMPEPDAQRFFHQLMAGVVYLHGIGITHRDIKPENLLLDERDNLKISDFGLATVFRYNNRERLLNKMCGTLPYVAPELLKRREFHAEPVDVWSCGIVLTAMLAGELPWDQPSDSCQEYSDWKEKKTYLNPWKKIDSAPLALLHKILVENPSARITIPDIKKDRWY

| SMILES | IC50 (mTOR enzyme) [µM] | IC50 (Cyclin E/CDK2) [µM] | IC50 (recombinant His-CHK1) [µM] |
| --- | --- | --- | --- |
| Nc1c(Br)c(N2CCC[S+]([O-])CC2)nc2c(-c3cnc4ccccc4c3)cnn12 (stereo not drawn) [Compound 10.63] | < 0.1 | > 5 | > 5 |
| Nc1c(Br)c(N2CCCS(=O)(=O)CC2)nc2c(-c3cnc4ccccc4c3)cnn12 [Compound 10.64] | < 0.1 | > 5 | > 5 |
| COC(=O)c1ccc(-c2cc(N)n3ncc(-c4cnc5ccccc5c4)c3n2)cn1 [Compound 11.3] | 1 to 5 | > 5 | > 5 |
| Nc1c(Br)c(CN2CCOCC2)nc2c(-c3cnc4ccccc4c3)cnn12 [Compound 13.2, 6-bromo-5-(morpholinomethyl)-3-(quinolin-3-yl)pyrazolo[1,5-a]pyrimidin-7-amine] | < 0.1 | > 5 | > 5 |
| Nc1cc(CN2CCN3C(=O)NC(=O)C3C2)nc2c(-c3cnc4ccccc4c3)cnn12 (stereo not drawn) [Compound 13.3] | 0.201 to 0.5 | > 5 | > 5 |
| Nc1c(Br)c(CN2CCN3C(=O)NC(=O)C3C2)nc2c(-c3cnc4ccccc4c3)cnn12 (stereo not drawn) [Compound 13.4] | < 0.1 | > 5 | > 5 |
| Nc1c(Br)c(CNC2CCOCC2)nc2c(-c3cnc4ccccc4c3)cnn12 [Compound 13.16] | < 0.1 | > 5 | > 5 |
